# Source: patent US20260248881A1, “PHARMACEUTICAL COMPOSITION COMPRISING FOXM1 INHIBITOR AND IMMUNE CHECKPOINT INHIBITOR FOR PREVENTING OR TREATING CANCER” (National Cancer Center, priority 2022, published 2026)
# Key:
# FOXM1 = target: T1, FOXM1 (Homo sapiens, UniProt Q08050); assay: FOXM1 inhibitors tested in H1299 and PC9 cells (FOXM1 levels); assay type: cell-based
# T1 construct: host or cells: H1299 and PC9 cells
# T1 sequence (Q08050 1-763): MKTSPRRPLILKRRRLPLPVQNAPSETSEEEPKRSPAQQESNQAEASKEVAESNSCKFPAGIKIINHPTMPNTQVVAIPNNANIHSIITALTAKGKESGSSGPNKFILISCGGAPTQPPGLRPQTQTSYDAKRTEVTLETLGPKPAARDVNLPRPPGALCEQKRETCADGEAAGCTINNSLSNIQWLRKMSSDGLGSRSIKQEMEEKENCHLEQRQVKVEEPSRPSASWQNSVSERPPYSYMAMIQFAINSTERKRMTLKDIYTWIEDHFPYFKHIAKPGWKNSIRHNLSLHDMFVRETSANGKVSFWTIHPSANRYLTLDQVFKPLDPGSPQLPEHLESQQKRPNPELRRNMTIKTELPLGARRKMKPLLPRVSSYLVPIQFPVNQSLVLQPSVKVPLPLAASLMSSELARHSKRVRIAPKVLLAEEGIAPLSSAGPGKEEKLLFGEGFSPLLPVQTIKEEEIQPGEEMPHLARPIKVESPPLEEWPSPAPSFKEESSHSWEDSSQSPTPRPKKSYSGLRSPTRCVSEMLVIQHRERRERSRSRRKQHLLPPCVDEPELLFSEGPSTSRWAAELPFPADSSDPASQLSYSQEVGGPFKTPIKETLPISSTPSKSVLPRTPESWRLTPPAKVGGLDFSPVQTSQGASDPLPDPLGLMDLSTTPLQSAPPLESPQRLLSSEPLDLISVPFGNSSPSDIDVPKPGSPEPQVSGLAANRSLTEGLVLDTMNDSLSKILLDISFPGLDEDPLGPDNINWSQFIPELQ
# Method: H1299 and PC9 cells purchased from ATCC (Manassas, VA, USA) were cultured in RPMI-1640 medium (#10-040-CV; Corning, New York, NY, USA) supplemented with 10% […] (#35-010-CV; Corning) and penicillin-streptomycin antibiotic cocktail (#15240062; Thermo Fisher Scientific, Waltham, MA, USA) at 37° C. and 5% CO2.
# Total RNA was extracted and purified using the RNeasy kit (#74004; QIAGEN) according to the manufacturer's protocol. Reverse transcription of mRNA was performed using a PrimeScript 1st Strand CDNA Synthesis Kit (#6110A; TaKaRa Bio, Otsu, Japan). Quantitative PCR was performed using primers specific for the CD274 and FOXM1 genes designed using Primer 3 software. A β-actin gene was used as an internal control group to normalize target gene expression.
# CD274 promoter = assay: Dual-luciferase assay with CD274 promoter-luciferase construct; assay type: cell-based, human; conditions: TST in the presence of IFNγ
# Excerpt: The pGL3 plasmid containing a 2 kb promoter of CD274 (#107003; Addgene, Watertown, MA, USA) was kindly provided by Julian Downward lab (Coelho M A, de Carne Trecesson S, Rana S, Zecchin D, Moore C, Molina-Arcas M, East P, Spencer-Dene B, Nye E, Barnouin K, Snijders A P, Lai W S, Blackshear P J, Downward J, Immunity 2017, 47, 1083.). H1299 and PC9 cells were co-transfected with a pGL3 2 kb promoter. Cells containing CD274 or control pGL3-basic plasmid and pGL4.70 hRluc Renilla luciferase vector (Promega, Madison, WI, USA) were transfected with siFOXM1 or treated with TST in the presence of interferon-gamma (IFNγ). Cells were harvested 48 hours after transfection, and a dual luciferase assay was performed to the according manufacturer's protocol (#E1910; Promega). At least four independent biological replicates were examined to obtain reliable results.
# human H1299 or PC9 cells = assay: Xenograft tumor model; assay type: in vivo, BALB/c nude mice
# Method: Mice (n=6) were injected intraperitoneally with TST dissolved in DMSO at a dose of 17 mg/kg every 2 days before euthanasia and sacrifice. Tumor volume and body weight of the mice were measured every other day. […] Two days after the final TST injection, all mice were sacrificed, and tumor tissues were collected for immunohistochemical (IHC) staining of FOXM1 and PD-L1. The tissues were fixed in 10% neutralized formaldehyde and embedded in paraffin blocks. Tissue microarray (TMA) slides were made with a 4 mm diameter per sample and sectioned at 4 μm thickness to perform IHC with anti-FOXM1 (#20459S) or anti-PD-L1 (#13684S) (Cell Signaling Technology) antibodies. Autostainer Link48 (Dako, Agilent Technologies, Santa Clara, CA, USA) was used for analysis.
# IHC staining was performed using anti-rabbit-HRP antibodies (K4003, EnVision+ HRP Labelled Polymer Anti-Rabbit, Dako, Agilent Technologies, Carpinteria, CA, USA) and 3,3′-diaminobenzidine (DAB) (K3468, DAB+ Chromogen, Dako, Agilent Technologies, Santa Clara, CA, USA) as substrates, and the sections were counterstained with hematoxylin (K8008, EnVision FLEX Hematoxylin, Dako, Agilent Technologies Singapore, Singapore). To analyze the in vivo toxicity of the tested drugs, four xenograft mice from each group were used for serum biochemical analysis (Table 2). On day 9, serum samples were collected from the mice in the control and TST-treated groups. In addition, the vital organs (liver, spleen, and kidney) were collected form mice, sectioned, and stained with H&E to monitor histopathological changes.
# To investigate the effect of TST, which is a FOXM1 inhibitor, on tumor growth and PD-L1 expression in vivo, human H1299 or PC9 cells (5×10^6) were subcutaneously implanted into BALB/c nude mice (n=6 per group). When the average size of the xenografted tumor masses reached approximately 170 mm^3, TST was injected intraperitoneally into the mice at a dose of 17 mg/kg four times every 2 days (FIG. 7a). […] 2 days after the final TST treatment, the mice were sacrificed. […]
# H1299 and PC9 cells = assay: Cell proliferation assay (WST-1); assay type: cell-based, human; conditions: 5 μM TST or siRNA knockdown; 24, 48, and 72 hours; both cell lines
# Method: H1299 and PC9 cells were grown in 96-well plates, treated with 5 µM TST, or transfected with siFOXM1 at a density of 3,000 cells/well […]. Cell proliferation was recorded at the specified times by adding 4-[3-(4-iodophenyl)-2-(4-nitro-phenyl)-2H-5-tetrazolio]-1,3-benzene sulfonate) (WST-1, #MK400, TaKaRa Bio) at 37° C. for 2 hours, and absorbance was measured at 450 nm. All experiments were performed in quadruplicate.
# [1] = cited from earlier work
substance,measurement,setting,value
thiostrepton [TST],FOXM1 levels,FOXM1,"the most effective inhibitor, significantly reducing FOXM1 levels"
same,decrease in relative luciferase activity (CD274 promoter activity),CD274 promoter; H1299,53%
same,decrease in relative luciferase activity (CD274 promoter activity),CD274 promoter; PC9,66%
same,FOXM1 and PD-L1 expression in tumors (immunohistochemical analysis),"human H1299 or PC9 cells; 2 days after final TST treatment, vs control mice",significantly downregulated
same,tumor volume,"human H1299 or PC9 cells; TST 17 mg/kg intraperitoneally four times every 2 days, vs control group",significant decrease in tumor volume
same,body weight,"human H1299 or PC9 cells; after 9 days, TST vs control",no difference in body weight
same,cell proliferation,H1299 and PC9 cells,decreased in a time-dependent manner
same,solubility in water,[1],low solubility in water
